± gives the standard deviation of the averaged measurements.
How the values were obtained:
Assay in all cases: level (log10 ratio to DMSO vehicle control); higher = higher biomarker level / cell amount than vehicle control
[1] = compound: C=CC(=O)OCCC(F)(F)C(F)(F)C(F)(F)C(F)(F)C(F)(F)C(F)(F)C(F)(F)C(F)(F)F [8:2 Fluorotelomer acrylate]; conditions: in DMSO
Protocol: (§1)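 BioMAP Diversity Plus panel of 12 human primary cell co-culture systems (3C, 4H, LPS, SAg, BT, BF4T, BE3C, CASM3C, HDF3CGF, KF3CT, MyoF, Mphg). Compounds were added 1 h before stimulation and left for 24 h (MyoF 48 h; BT 72 h for soluble read-outs or 6 d for IgG). Biomarkers were read by ELISA, cytotoxicity by SRB, PBMC viability and proliferation by Alamar Blue. Each well value was divided by the mean of 8 DMSO control wells on the same plate and log10 transformed; duplicate blinded samples were tested at 4 concentrations.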

[2] = compound: OCC(F)(F)C(F)(F)C(F)(F)C(F)(F)C(F)(F)C(F)(F)F [6:1 Fluorotelomer alcohol]; conditions: in DMSO
Protocol: as §1

[3] = compound: FC(F)(F)C(F)(F)C(F)(F)C(F)(F)CCI [1H,1H,2H,2H-Perfluorohexyl iodide]; conditions: in DMSO
Protocol: as §1

[4] = compound: FC(F)(F)COC(OCC(F)(F)F)OCC(F)(F)F [tris(Trifluoroethoxy)methane]; conditions: in DMSO
Protocol: as §1

[5] = compound: O=C(CC(=O)C(F)(F)C(F)(F)C(F)(F)F)c1cccs1 [(Perfluorobutyryl)-2-thenoylmethane]; conditions: in DMSO
Protocol: as §1

[6] = compound: FC(F)(I)C(F)(F)C(F)(F)C(F)(F)C(F)(F)C(F)(F)I [1,6-Diiodoperfluorohexane]; conditions: 6700 nM; in DMSO
Protocol: as §1

[7] = compound: O=C(Cl)C(F)(F)C(F)(F)C(F)(F)C(=O)Cl [Hexafluoroglutaryl chloride]; conditions: in DMSO
Protocol: as §1

Test System	level (log10) ([1]; 6700 nM)	level (log10) ([1]; 20000 nM)	level (log10) ([1]; 60000 nM)	level (log10) ([2]; 6700 nM)	level (log10) ([2]; 20000 nM)	level (log10) ([2]; 60000 nM)	level (log10) ([3]; 6700 nM)	level (log10) ([3]; 20000 nM)	level (log10) ([3]; 60000 nM)	level (log10) ([4]; 6700 nM)	level (log10) ([4]; 20000 nM)	level (log10) ([4]; 60000 nM)	level (log10) ([5]; 6700 nM)	level (log10) ([5]; 20000 nM)	level (log10) [6]	level (log10) ([7]; 6700 nM)	level (log10) ([7]; 20000 nM)	level (log10) ([7]; 60000 nM)
BE3C:IL-1alpha	-0.007 ± 0.021	-0.015 ± 0.0042	0.0165 ± 0.029	-0.019 ± 0.0014	0.008 ± 0.0014	-0.0155 ± 0.04	0.015 ± 0.017	0.024 ± 0.0042	0.045 ± 0.023	0.0075 ± 0.021	-0.006 ± 0.021	0.021 ± 0.0057	-0.0165 ± 0.00071	-0.19 ± 0.005	-0.004	-0.014 ± 0.025	-0.017 ± 0.0042	0.0025 ± 0.005
3C:Proliferation	-0.035 ± 0.037	-0.009 ± 0.048	-0.0155 ± 0.005	-0.0285 ± 0.0092	-0.0325 ± 0.0064	-0.685 ± 0.77	-0.0115 ± 0.0064	-0.051 ± 0.064	-0.047 ± 0.023	-0.013 ± 0.061	-0.001 ± 0.037	0.0035 ± 0.03	-0.276 ± 0.04	-0.891 ± 0.063	-0.102	-0.0045 ± 0.026	0.006 ± 0.018	-0.0345 ± 0.036
BF4T:CD106/VCAM-1	-0.038 ± 0.0071	-0.06 ± 0.024	-0.0235 ± 0.076	0.0075 ± 0.0021	-0.007 ± 0.031	-0.032 ± 0.0028	-0.0245 ± 0.0021	-0.044 ± 0.025	-0.0065 ± 0.086	-0.014 ± 0.0042	-0.005 ± 0.023	0.003 ± 0.023	0.0215 ± 0.052	-0.236 ± 0.063	-0.041	-0.0385 ± 0.039	-0.022 ± 0.058	-0.058 ± 0.0085
SAg:Proliferation	0.0035 ± 0.022	-0.0625 ± 0.0064	-0.0055 ± 0.043	-0.0075 ± 0.005	-0.0455 ± 0.0035	-0.0325 ± 0.13	-0.0205 ± 0.0078	-0.043 ± 0.013	-0.155 ± 0.014	-0.012 ± 0.0014	0.013 ± 0.04	0.007 ± 0.013	-0.298 ± 0.019	-0.585	-0.028	0.0165 ± 0.026	0.0255 ± 0.013	0.001 ± 0.013
BF4T:MMP-1	0.002 ± 0.0057	0.0025 ± 0.0021	0.0175 ± 0.022	0.002 ± 0.014	0.0025 ± 0.0078	-0.011 ± 0.0028	0.007 ± 0.024	0.0105 ± 0.029	0.015 ± 0.051	0.006 ± 0.02	-0.007 ± 0.017	0.0015 ± 0.00071	-0.02 ± 0.011	-0.0785 ± 0.0092	-0.006	-0.0125 ± 0.018	0.003 ± 0.0028	0 ± 0.017
LPS:IL-1alpha	0.021 ± 0.013	0.0315 ± 0.052	0.0315 ± 0.0078	-0.038 ± 0.03	-0.015 ± 0.061	-0.0105 ± 0.023	-0.0045 ± 0.032	-0.034 ± 0.047	0.051 ± 0.044	-0.019 ± 0.014	-0.015 ± 0.014	-0.0095 ± 0.035	-0.069 ± 0.034	0.109 ± 0.016	-0.016	-0.0955 ± 0.022	-0.115 ± 0.015	-0.057 ± 0.027
BT:sIL-17F	-0.018 ± 0.061	-0.0565 ± 0.022	-0.03 ± 0.014	0.0105 ± 0.0035	-0.0465 ± 0.025	-0.388 ± 0.029	-0.0555 ± 0.04	-0.03 ± 0.021	-0.0755 ± 0.1	-0.024 ± 0.031	-0.0565 ± 0.032	0.0095 ± 0.084	-0.114 ± 0.061	-0.45 ± 0.048	0.06	0.0195 ± 0.09	-0.095 ± 0.0071	-0.0065 ± 0.005
LPS:CCL2/MCP-1	-0.0105 ± 0.0021	-0.014 ± 0.0071	0.015 ± 0.041	-0.0015 ± 0.029	-0.0045 ± 0.012	0.0045 ± 0.029	-0.016 ± 0.0014	0.0055 ± 0.0078	-0.013 ± 0.024	0.0085 ± 0.04	0.021 ± 0.042	0.036 ± 0.034	-0.0475 ± 0.0035	-0.131 ± 0.0057	0.01	0.0165 ± 0.005	0.008 ± 0.041	0.0265 ± 0.033
BF4T:CCL26/Eotaxin-3	-0.0555 ± 0.012	-0.0785 ± 0.079	-0.098 ± 0.12	0.0385 ± 0.026	0.0185 ± 0.022	0.0445 ± 0.03	-0.032 ± 0.017	-0.0525 ± 0.036	-0.098 ± 0.073	0.0055 ± 0.025	-0.011 ± 0.0014	0.012 ± 0.0057	-0.181 ± 0.0035	-0.464 ± 0.018	-0.071	0.023 ± 0.031	0.017 ± 0.033	0.035 ± 0.045
BF4T:CXCL8/IL-8	-0.0395 ± 0.021	-0.017 ± 0.028	-0.004 ± 0.017	0.008 ± 0.057	-0.0085 ± 0.039	0.013 ± 0.016	0.0135 ± 0.025	0.0195 ± 0.00071	0.0355 ± 0.03	0 ± 0.037	0.007 ± 0.021	0.005 ± 0.024	0.0325 ± 0.028	0.114 ± 0.0092	-0.014	0.045 ± 0.086	0.037 ± 0.072	0.048 ± 0.089
4H:CD62P/P-selectin	-0.018 ± 0.0028	-0.092 ± 0.0028	-0.047 ± 0.064	-0.023 ± 0.038	-0.0435 ± 0.029	-0.182 ± 0.079	-0.001 ± 0.011	0.023 ± 0.011	0.0135 ± 0.012	-0.0215 ± 0.064	0.011 ± 0.088	-0.0135 ± 0.053	-0.0205 ± 0.037	-0.41 ± 0.032	-0.001	-0.012 ± 0.033	0.0045 ± 0.026	-0.0045 ± 0.043
LPS:CD40	-0.008 ± 0.017	-0.0285 ± 0.036	-0.031 ± 0.016	0.053 ± 0.016	0.048 ± 0.052	0.041 ± 0.0028	0.0065 ± 0.0021	-0.019 ± 0.02	-0.0095 ± 0.025	-0.0235 ± 0.023	-0.0275 ± 0.0092	-0.013 ± 0.027	-0.0095 ± 0.071	-0.0805 ± 0.083	-0.009	-0.011 ± 0.057	0.0315 ± 0.032	-0.0375 ± 0.063
BT:sIL-17A	0.0205 ± 0.054	0.0765 ± 0.13	-0.141 ± 0.084	-0.063 ± 0.088	-0.107 ± 0.11	-0.475 ± 0.093	0.0075 ± 0.12	0.028 ± 0.011	-0.249 ± 0.1	-0.0445 ± 0.0078	-0.126 ± 0.15	0.079 ± 0.02	-0.135 ± 0.17	-0.524 ± 0.047	-0.079	0.005 ± 0.098	-0.049 ± 0.18	0.0285 ± 0.13
4H:CCL2/MCP-1	-0.025 ± 0.018	-0.016 ± 0.023	0.012 ± 0.051	-0.005 ± 0.0071	-0.0135 ± 0.0035	0.002 ± 0.042	0.0175 ± 0.021	-0.008 ± 0.016	0.0195 ± 0.042	-0.017 ± 0.017	-0.017 ± 0.018	0.031 ± 0.054	-0.0825 ± 0.0078	-0.249 ± 0.0042	-0.03	-0.022 ± 0.0042	-0.015	-0.015
3C:CXCL9/MIG	-0.0135 ± 0.011	-0.005 ± 0.0042	0.01 ± 0.018	0.0065 ± 0.0035	0.0065 ± 0.0035	0.019	0.0045 ± 0.00071	-0.0085 ± 0.005	0.007 ± 0.0057	-0.01 ± 0.018	-0.008 ± 0.0057	-0.0115 ± 0.0035	-0.0205 ± 0.012	-0.0255 ± 0.0021	-0.002	-0.0035 ± 0.005	-0.004 ± 0.0014	0.002 ± 0.0085
BE3C:CXCL9/MIG	-0.0115 ± 0.0035	-0.0075 ± 0.00071	0.0115 ± 0.021	-0.005 ± 0.013	-0.002 ± 0.0099	-0.545 ± 0.4	0.006 ± 0.0085	0.002 ± 0.016	0.0165 ± 0.028	0.001 ± 0.0071	0.0025 ± 0.023	-0.0045 ± 0.018	-0.0095 ± 0.016	-0.142 ± 0.0028	0.01	0.018 ± 0.011	0.007 ± 0.0099	0.0065 ± 0.022

From the supplement of paper PMC10331698
